# Measured values reported in patent publication US11459330B2, “Substituted bicyclic heterocyclic compounds as PRMT5 inhibitors” (LUPIN LIMITED, priority 2017, dated 2022).
# What was measured:
# PRMT5:MEP50 = PRMT5:MEP50 (Homo sapiens, UniProt O14744); experiment: PRMT5 biochemical HTRF assay (Biochemical Assay Protocol 1 / 2); settings: biotinylated H4R3 substrate, 1 μM SAM, protocol 1 or 2 not given, activity range 300 pM to 950 pM, read-out: IC50 (PRMT5 inhibition), activity range
# Procedure: Biochemical Assay Protocol 1
# (§1) Inhibitory effect of compounds on PRMT5 was assessed using HTRF detection technology in biochemical assay. Biotinylated H4R3 (residues 1-21) was used as a substrate. Compounds were pre-incubated with 15-25 ng PRMT5:MEP50 per well of a 384-well plate for 30 min at room temperature in the assay buffer containing 20 mM Bicine, pH 7.6, 25 mM NaCl, 2 mM DTT, 0.01% Chicken albumin and 0.01% Tween-20. Reaction was initiated by adding 1 μM of SAM and 50 nM biotinylated H4R3. Total assay volume was 15 μL. Reaction was continued for 120 min at room temperature. Then detection solution containing Streptavidin-Eu cryptate, anti-rabbit IgG-XL-665, Histone H4R3 Dimethyl Symmetric (H4R3me2s) Polyclonal Antibody, all prepared in HTRF detection buffer was added and further incubated for 30 min at room temperature. HTRF signal was recorded in PHERAStar microplate reader. Ratio of signal obtained at 665 nm and 620 nm was used to compute the percent inhibition of compound as follows % Inhibition=100−((Test Ratio−Negative control Ratio)/(Positive control Ratio−Negative control Ratio)*100) where Positive control=PRMT5+SAM+H4R3 Negative control=PRMT5+H4R3 Biochemical Assay Protocol 2
# as §1, with “2.5” for “15-25”, “4 h” for “120 min”, “control=PRMT5+H4R3” for “control=PRMT5+H4R3 Biochemical Assay Protocol 2”
# PANC-1 cells = experiment: Anti-cancer assay (Panc-1), cell viability CellTiterGlo; type: cell-based; settings: Homo sapiens, PANC-1, 168 h, 7 days, activity range, lower bound in pM, upper bound in nM
# Procedure: Anticancer Activity Assay
# Z-138 cells were seeded at a density of 2000-3000 cells per well in culture media (IMDM+10% FBS). PANC-1 (ATCC, CRL-1469™) and MIA PaCa-2 (ATCC, CRL-1420™) cells were seeded at a density of 200-300 cells per well in culture media (DMEM+10% FBS). Cells were seeded in opaque, flat bottomed tissue culture grade 96-well plates and Z-138 cells (suspension) were seeded and treated on the same day with various concentrations of test compounds. PANC-1 and MIA PaCa-2 cells, being adherent, were kept for overnight settlement at standard cell culture conditions (37° C., 5% CO2). On the following day, cells were treated with various concentrations of test compounds. Cells were treated with test compounds for a period of 96 h, 7 days and 10 days, for Z-138 cells, PANC-1 cells and MIA PaCa-2 cells, respectively. Cell viability was assessed using CellTiterGlo™ (Promega, USA) as per manufacturer's instructions. Relative Light Units (RLU) were read in Synergy™ 2 reader (Biotek, USA). The assay measures cellular ATP as an indicator of cell viability. RLU is proportional to the number of viable cells in the respective well.
# % inhibition of cell viability was calculated relative to the vehicle control samples containing media with 0.1% DMSO alone as per the formula below. (Avg. of Untreated Control−Avg. of Test)×100 Avg. of Untreated Control
# The IC50 values of individual compounds were calculated with Non Linear Regression Analysis using Graph Pad Prism (Graph Pad software, Inc, USA).
# Anti-Cancer Assay (Panc-1)
# Z-138 xenograft = experiment: In vivo efficacy, Z-138 xenograft mouse model; parameters: species or system female NOD.CB17-Prkdc<scid>/J mice; settings: mice, oral twice a day; for % of tumor growth inhibition: 1 mg/kg dose, after 38 days
# Procedure: In Vivo Efficacy Experiments Tumor xenograft for mantle cell lymphoma was established by injection of cells into the right flank of female NOD.CB17-Prkdc/J mice with an age between 7-11 weeks purchased from The Jackson Laboratory, USA. All animal study proposals were reviewed and approved by the Institutional Animal Ethics Committee (IAEC) prior to initiation of experimentation. Z-138 Xenograft For Z-138 xenograft mouse model, Z-138 cells (ATCC® CRL-3001™) were grown in IMDM medium supplemented with 10% FBS. Cells were incubated under standard conditions at 37° C. and 5% CO2. For generating tumors, Z-138 cells in IMDM medium were mixed with Matrigel (Corning® Matrigel® Basement Membrane Matrix) in a ratio of 1:1. 10×10^6 cells) in a volume of 200 μL were injected subcutaneously in each mouse to establish tumors. Mice were randomized into treatment groups of 8-10 mice, once tumors reached an average volume between 100 to 120 mm^3. Treatment was initiated on day of randomization and continued until end of the study. The Vehicle and test compound treatment groups were administered respective treatments orally, using gavage tubing, at an application volume of 10 mL/kg per mouse twice a day. Mice were housed in individually ventilated cages (IVC) at room temperature of 22+3° C., humidity 50+20% and 12/12 h light/dark cycle. All the experimental activities were carried-out inside the biosafety cabinets to ensure sterility.
# Tumor size was measured with Digimatic Vernier caliper (Mitutoyo, Japan) when the tumors became palpable. Tumor volume (T. V.) is calculated by using the formula: Tumor volume (mm3)=(L×W2)/2 Where, L: Length of tumor, W: Width of tumor in millimeter Percent tumor growth inhibition (% TGI) is calculated using the formula: % TGI=[1−(Tf−Ti)/(Cf−Ci)]×100 Where, Tf and Ti, are the final and initial tumor volumes (test compound), and Cf and Ci are the final and initial mean tumor volumes (vehicle group), respectively. Percent tumor regression is calculated as: % TR:(Ti−Tf)/(Ti)×100 Where, Tf and Ti, are the final and initial tumor volumes, respectively.
# PRMT5:MEP50, sequence (O14744 whole entry): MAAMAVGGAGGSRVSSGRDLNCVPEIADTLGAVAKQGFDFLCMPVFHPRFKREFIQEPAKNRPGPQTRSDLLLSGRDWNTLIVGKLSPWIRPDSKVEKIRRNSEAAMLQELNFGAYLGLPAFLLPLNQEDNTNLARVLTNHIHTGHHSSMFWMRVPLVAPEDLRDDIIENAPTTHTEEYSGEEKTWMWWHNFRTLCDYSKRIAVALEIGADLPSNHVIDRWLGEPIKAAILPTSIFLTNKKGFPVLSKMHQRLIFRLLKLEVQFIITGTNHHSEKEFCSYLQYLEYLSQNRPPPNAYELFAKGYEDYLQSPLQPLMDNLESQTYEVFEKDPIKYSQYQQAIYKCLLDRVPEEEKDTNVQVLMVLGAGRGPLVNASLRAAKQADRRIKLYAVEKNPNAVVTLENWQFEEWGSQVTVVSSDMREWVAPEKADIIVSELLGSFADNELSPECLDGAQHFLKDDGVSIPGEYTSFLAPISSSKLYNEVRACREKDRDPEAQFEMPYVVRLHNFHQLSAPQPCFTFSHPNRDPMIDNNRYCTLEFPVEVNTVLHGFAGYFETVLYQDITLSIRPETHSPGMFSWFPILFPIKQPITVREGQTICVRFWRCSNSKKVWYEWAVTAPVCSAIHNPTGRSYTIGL
# PRMT5:MEP50, sequence (Q9BQA1 whole entry partner): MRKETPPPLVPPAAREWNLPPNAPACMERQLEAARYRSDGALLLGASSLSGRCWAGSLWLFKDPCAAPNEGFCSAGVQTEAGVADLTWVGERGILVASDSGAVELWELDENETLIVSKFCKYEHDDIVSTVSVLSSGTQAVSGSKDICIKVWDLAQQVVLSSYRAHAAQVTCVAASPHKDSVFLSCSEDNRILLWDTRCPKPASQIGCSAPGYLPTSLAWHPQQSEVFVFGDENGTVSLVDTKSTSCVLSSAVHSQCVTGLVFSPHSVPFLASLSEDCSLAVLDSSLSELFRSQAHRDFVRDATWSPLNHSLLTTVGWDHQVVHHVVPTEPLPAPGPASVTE
IC50 (PRMT5:MEP50) [nM],IC50 (PANC-1 cells) [pM],SMILES,tumor growth inhibition (Z-138 xenograft; 5 mg/kg dose) [%],tumor regression (Z-138 xenograft; 5 mg/kg dose) [%],% of tumor growth inhibition (Z-138 xenograft) [%]
0.3 to 0.95,300 to 20000,"Nc1nc2cc(CC[C@@]34C[C@@H]3[C@@H](n3ccc5c(N)ncnc53)[C@H](O)[C@@H]4O)cc(F)c2cc1Cl [Compound-48, (1R,2R,3S,4R,5S)-1-(2-(2-Amino-3-chloro-5-fluoroquinolin-7-yl)ethyl)-4-(4-amino-7H-pyrrolo[2,3-d]pyrimidin-7-yl)bicyclo[3.1.0]hexane-2,3-diol]",100,63,
0.3 to 0.95,300 to 20000,"CC(Cc1cc(F)c2cc(Cl)c(N)nc2c1)C1=C[C@@H](n2ccc3c(N)ncnc32)[C@H](O)[C@@H]1O (single isomer, unassigned) [Compound-33b]",,,100
0.3 to 0.95,300 to 20000,"Cc1ncnc2c1ccn2[C@@H]1C=C(CCc2cc(F)c3cc(Cl)c(N)nc3c2)[C@@H](O)[C@H]1O [Compound-13, (1S,2R,5R)-3-(2-(2-amino-3-chloro-5-fluoroquinolin-7-yl)ethyl)-5-(4-methyl-7H-pyrrolo[2,3-d]pyrimidin-7-yl)cyclopent-3-ene-1,2-diol]",,,100
0.3 to 0.95,300 to 20000,"Nc1nc2cc(CCC3=C[C@@H](n4ccc5c(N)ncnc54)[C@H](O)[C@@H]3O)cc(F)c2cc1Cl [Compound-24, (1S,2R,5R)-3-(2-(2-amino-3-chloro-5-fluoroquinolin-7-yl)ethyl)-5-(4-amino-7H-pyrrolo[2,3-d]pyrimidin-7-yl)cyclopent-3-ene-1,2-diol]",,,100
